Consider 21 compounds from patent publication US20130281465A1, “PYRAZOLE DERIVATIVE” (TAISHO PHARMACEUTICAL CO., LTD., priority 2010, published 2013).

Test [1] deals with T1, human orexin type 1 receptor (hOX1R) (Homo sapiens, UniProt O43613).
T1 construct: expressed in transfected cells; host or cells: Chinese hamster ovary (CHO) cells
T1 sequence (O43613 1-425): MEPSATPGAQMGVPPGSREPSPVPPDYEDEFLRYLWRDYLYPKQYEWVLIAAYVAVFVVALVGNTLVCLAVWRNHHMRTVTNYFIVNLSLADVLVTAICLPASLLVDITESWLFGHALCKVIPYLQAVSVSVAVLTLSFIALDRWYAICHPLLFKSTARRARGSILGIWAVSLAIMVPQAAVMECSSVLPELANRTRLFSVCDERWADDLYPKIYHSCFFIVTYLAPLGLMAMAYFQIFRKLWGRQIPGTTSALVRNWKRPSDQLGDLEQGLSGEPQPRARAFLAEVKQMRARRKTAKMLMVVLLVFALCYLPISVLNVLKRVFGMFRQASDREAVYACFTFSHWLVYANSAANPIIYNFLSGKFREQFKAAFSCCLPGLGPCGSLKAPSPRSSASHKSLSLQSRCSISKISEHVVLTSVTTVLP
Briefly: Orexin receptor antagonistic activity, intracellular Ca2+ fluorescence (FDSS) in CHO cells expressing hOX1R. As to conditions: CHO cells forced to express hOX1R; orexin-A analogue peptide ligand 300 pM; Fluo-4 maximum fluorescence; read-out: IC50 value OX1R. The format is cell-based. As to the method: (§1) The antagonistic activity of each test compound against human orexin type 1 receptor (hOX1R) and orexin type 2 receptor (hOX2R) was performed as described in the literature with a modification (Toshikatsu Okumura et al., Biochemical and Biophysical Research Communications 280, 976-981, 2001). Chinese hamster ovary (CHO) cells forced to express hOX1R or hOX2R were seeded at 20,000 cells/well on a 96 well Black clear bottom plates (Nunc) and cultured for 16 hours under conditions of 37° C. and 5% CO2 using a Ham's F-12 medium containing 0.1 mM MEM non-essential amino acids, 0.5 mg/ml G418, and 10% fetal bovine serum (all from Invitrogen Corp.). After removal of the medium, 100 μL of the assay buffer (25 mM HEPES (Dojindo Laboratories), Hanks' balanced salt solution (Invitrogen Corp.), 0.1% bovine serum albumin, 2.5 mM probenecid, 200 μg/ml Amaranth (all from Sigma-Aldrich Corp.), pH 7.4) containing 0.5 μM Fluo-4AM ester (Dojindo Laboratories) was added thereto, and the cells were incubated for 60 minutes under conditions of 37° C. and 5% CO2. After removal of the buffer solution for assay containing Fluo-4AM ester, the test compound was dissolved at a concentration of 10 mM in dimethyl sulfoxide and diluted with the assay buffer, and 150 μL of the diluted solution was then added to each wells, which were then incubated for 30 minutes.
(§2) A peptide (Pyr-[…]11e-Leu-Thr-Leu-NH2; Peptide Institute, Inc.) substituted 2 amino acids of human orexin-A was diluted with the assay buffer to 300 pM (final concentration for hOX1R) or 3 nM (final concentration for hOX2R). 50 μL of this ligand solution was added thereto to start reaction. During the reaction, the fluorescence value of each well was measured every one second for 3 minutes using Functional Drug Screening System (FDSS; manufactured by Hamamatsu Photonics K.K.), and antagonistic activity was determined with the maximum fluorescence value as an index for intracellular Ca^2+ concentration. The antagonistic activity of the test compound was calculated with the fluorescence value of a well supplemented with only a dilution buffer solution as 100% and the fluorescence value of a well supplemented with a buffer solution containing neither the ligand nor the compound as 0%, and determined in terms of 50% inhibitory concentration (IC50 value) from fluorescence values derived from the test compound added at varying concentrations.

The target in test [2] is T2, orexin type 2 receptor (hOX2R) (Homo sapiens, UniProt O43614).
T2 construct: expressed in transfected cells; host or cells: Chinese hamster ovary (CHO) cells
T2 sequence (O43614 1-444): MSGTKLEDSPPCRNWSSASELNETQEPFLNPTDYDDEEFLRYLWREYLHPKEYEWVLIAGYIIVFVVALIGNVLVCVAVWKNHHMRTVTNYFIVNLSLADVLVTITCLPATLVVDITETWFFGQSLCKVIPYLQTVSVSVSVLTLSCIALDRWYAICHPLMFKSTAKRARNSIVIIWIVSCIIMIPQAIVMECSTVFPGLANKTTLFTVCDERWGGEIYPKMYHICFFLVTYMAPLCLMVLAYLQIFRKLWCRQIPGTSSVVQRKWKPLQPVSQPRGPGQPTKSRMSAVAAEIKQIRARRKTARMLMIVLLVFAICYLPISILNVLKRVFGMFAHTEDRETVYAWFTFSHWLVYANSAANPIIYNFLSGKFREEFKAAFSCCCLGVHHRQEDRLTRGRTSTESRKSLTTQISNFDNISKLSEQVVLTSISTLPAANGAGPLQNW
Put plainly: Orexin receptor antagonistic activity, intracellular Ca2+ fluorescence (FDSS) in CHO cells expressing hOX2R. The format is cell-based. As to conditions: CHO cells forced to express hOX2R; orexin-A analogue peptide ligand 3 nM; Fluo-4 maximum fluorescence; read-out: IC50 value OX2R. On the procedure: as §1, §2

For `Cc1ccc(-n2nccn2)c(C(=O)NCCn2cc(-c3ccc(F)cn3)cn2)c1` [Example 1, N-{2-[4-(5-fluoropyridin-2-yl)-1H-pyrazol-1-yl]ethyl}-5-methyl-2-(2H-1,2,3-triazol-2-yl)benzamide], the IC50 in test [1] worked out at 1040 nM; in test [2], 2390 nM.

In the case of `Cc1ccc(-n2nccn2)c(C(=O)N(C)CCn2cc(-c3ccc(F)cn3)cn2)c1` [Example 2, N-{2-[4-(5-fluoropyridin-2-yl)-1H-pyrazol-1-yl]ethyl}-N,5-dimethyl-2-(2H-1,2,3-triazol-2-yl)benzamide], the values for the IC50 in test [1] and in test [2] were 17.9 nM and 47.3 nM, respectively.

`Cc1ccc(-n2nccn2)c(C(=O)N(C)CCn2cc(-c3ccc(F)cc3)cn2)c1` [Example 3-2, N-{2-[4-(4-fluorophenyl)-1H-pyrazol-1-yl]ethyl}-N,5-dimethyl-2-(2H-1,2,3-triazol-2-yl)benzamide]: the IC50 in test [1] was determined as 2.2 nM; in test [2] it was 7.1 nM.

On to `CCN(CCn1cc(-c2ccc(F)cn2)cn1)C(=O)c1cc(C)ccc1-n1nccn1` [Example 4, N-ethyl-N-{2-[4-(5-fluoropyridin-2-yl)-1H-pyrazol-1-yl]ethyl}-5-methyl-2-(2H-1,2,3-triazol-2-yl)benzamide], for which the IC50 in test [1] was determined as 6 nM; in test [2] it was 14.6 nM.

For `Cc1ccc(-n2nccn2)c(C(=O)N(CCn2cc(-c3ccc(F)cn3)cn2)CC2CC2)c1` [Example 5, N-(cyclopropylmethyl)-N-{2-[4-(5-fluoropyridin-2-yl)-1H-pyrazol-1-yl]ethyl}-5-methyl-2-(2H-1,2,3-triazol-2-yl)benzamide], the IC50 in test [1] was found to be 102 nM; in test [2], 38.7 nM.

For `Cc1ccc(-n2nccn2)c(C(=O)N(CCn2cc(-c3ccc(F)cc3)cn2)CC2CC2)c1` [Example 6, N-(cyclopropylmethyl)-N-{2-[4-(4-fluorophenyl)-1H-pyrazol-1-yl]ethyl}-5-methyl-2-(2H-1,2,3-triazol-2-yl)benzamide], the IC50 in test [1] was 50.1 nM; in test [2] it was 2.6 nM.

Turning to `CCN(CCn1cc(-c2ccc(F)cc2)cn1)C(=O)c1cc(C)ccc1-n1nccn1` [Example 7, N-ethyl-N-{2-[4-(4-fluorophenyl)-1H-pyrazol-1-yl]ethyl}-5-methyl-2-(2H-1,2,3-triazol-2-yl)benzamide], the results for the IC50 in test [1] and in test [2] were 2.3 nM and 6.3 nM, respectively.

On to `CCN(CCn1ccc(-c2ccc(F)cc2)n1)C(=O)c1cc(C)ccc1-n1nccn1` [Example 8, N-ethyl-N-{2-[3-(4-fluorophenyl)-1H-pyrazol-1-yl]ethyl}-5-methyl-2-(2H-1,2,3-triazol-2-yl)benzamide], for which the IC50 came out at 0.9 nM in test [1] and 2.5 nM in test [2].

For `CCN(CCn1ccc(-c2ccccn2)n1)C(=O)c1cc(C)ccc1-n1nccn1` [Example 9, N-ethyl-5-methyl-N-{2-[3-(pyridin-2-yl)-1H-pyrazol-1-yl]ethyl}-2-(2H-1,2,3-triazol-2-yl)benzamide], the IC50 in test [1] worked out at 1 nM; in test [2], 4.3 nM.

`CCN(CCn1cc(-c2ccc(Cl)cn2)cn1)C(=O)c1cc(C)ccc1-n1nccn1` [Example 10, N-{2-[4-(5-chloropyridin-2-yl)-1H-pyrazol-1-yl]ethyl}-N-ethyl-5-methyl-2-(2H-1,2,3-triazol-2-yl)benzamide]: the IC50 is 14.4 nM in test [1] and 52.6 nM in test [2].

As for `CCN(CCn1cc(-c2ccccn2)cn1)C(=O)c1cc(C)ccc1-n1nccn1` [Example 11, N-ethyl-5-methyl-N-{2-[4-(pyridin-2-yl)-1H-pyrazol-1-yl]ethyl}-2-(2H-1,2,3-triazol-2-yl)benzamide], the IC50 in test [1] turned out to be 10.5 nM; in test [2], 17.2 nM.

With `CCN(CCn1cc(-c2cccc(C)n2)cn1)C(=O)c1cc(C)ccc1-n1nccn1` [Example 12, N-ethyl-N-{2-[4-(6-methylpyridin-2-yl)-1H-pyrazol-1-yl]ethyl}-5-methyl-2-(2H-1,2,3-triazol-2-yl)benzamide], the figures for the half-inhibitory concentration (IC50) in test [1] and in test [2] were 1.8 nM and 22.7 nM, respectively.

In the case of `Cc1ccc(-n2nccn2)c(C(=O)N(CCn2cc(-c3ccc(F)cn3)cn2)C2CC2)c1` [Example 13, N-cyclopropyl-N-{2-[4-(5-fluoropyridin-2-yl)-1H-pyrazol-1-yl]ethyl}-5-methyl-2-(2H-1,2,3-triazol-2-yl)benzamide], the IC50 in test [1] amounted to 9.8 nM; in test [2] it was 15.4 nM.

In the case of `Cc1ccc(-n2nccn2)c(C(=O)N(CCn2cc(-c3ccc(F)cn3)cn2)C(C)C)c1` [Example 14, N-{2-[4-(5-fluoropyridin-2-yl)-1H-pyrazol-1-yl]ethyl}-5-methyl-N-(propan-2-yl)-2-(2H-1,2,3-triazol-2-yl)benzamide], the IC50 in test [1] came to 597 nM; in test [2] it was 412 nM.

Take `CCN(CCn1cc(-c2ccc(F)cn2)cn1)C(=O)c1cc(C)ccc1-c1ncccn1` [Example 15, N-ethyl-N-{2-[4-(5-fluoropyridin-2-yl)-1H-pyrazol-1-yl]ethyl}-5-methyl-2-(pyrimidin-2-yl)benzamide]: the IC50 in test [1] was 29.8 nM; in test [2], 88.3 nM.

For `Cc1ccc(-n2nccn2)c(C(=O)NCCn2ccc(-c3ccc(F)cn3)n2)c1` [Example 16, N-{2-[3-(5-fluoropyridin-2-yl)-1H-pyrazol-1-yl]ethyl}-5-methyl-2-(2H-1,2,3-triazol-2-yl)benzamide], the IC50 is 115 nM in test [1] and 598 nM in test [2].

As to `Cc1ccc(-n2nccn2)c(C(=O)N(C)CCn2ccc(-c3ccc(F)cn3)n2)c1` [Example 17, N-{2-[3-(5-fluoropyridin-2-yl)-1H-pyrazol-1-yl]ethyl}-N,5-dimethyl-2-(2H-1,2,3-triazol-2-yl)benzamide], the half-inhibitory concentration (IC50) in test [1] was found to be 5.6 nM; in test [2] it was 22.8 nM.

As for `Cc1ccc(-n2nccn2)c(C(=O)N(CCn2ccc(-c3ccc(F)cn3)n2)CC2CC2)c1` [Example 18, N-(cyclopropylmethyl)-N-{2-[3-(5-fluoropyridin-2-yl)-1H-pyrazol-1-yl]ethyl}-5-methyl-2-(2H-1,2,3-triazol-2-yl)benzamide], the IC50 in test [1] was found to be 6.8 nM; in test [2], 2.2 nM.

As to `CCN(CCn1ccc(-c2ccc(F)cn2)n1)C(=O)c1cc(C)ccc1-n1nccn1` [Example 19, N-ethyl-N-{2-[3-(5-fluoropyridin-2-yl)-1H-pyrazol-1-yl]ethyl}-5-methyl-2-(2H-1,2,3-triazol-2-yl)benzamide], the IC50 in test [1] is 1.5 nM; in test [2] it was 3.9 nM.

As for `Cc1ccc(-n2nccn2)c(C(=O)N(C)CCn2ccc(-c3ccc(F)cc3)n2)c1` [Example 20-2, N-{2-[3-(4-fluorophenyl)-1H-pyrazol-1-yl]ethyl}-N,5-dimethyl-2-(2H-1,2,3-triazol-2-yl)benzamide], the IC50 was found to be 0.9 nM in test [1] and 8.8 nM in test [2].

With `Cc1ccc(-n2nccn2)c(C(=O)N(CCF)CCn2ccc(-c3ccc(F)cn3)n2)c1` [Example 21, N-{2-[3-(5-fluoropyridin-2-yl)-1H-pyrazol-1-yl]ethyl}-5-methyl-N-(2-fluoroethyl)-2-(2H-1,2,3-triazol-2-yl)benzamide], the results for the IC50 in test [1] and in test [2] were 3.7 nM and 20.3 nM, respectively.
